# Test results as given in ChEMBL document CHEMBL4610118 (J Med Chem, 2020).
# Target: CDK7/Cyclin H/MNAT1 (Homo sapiens, UniProt P50613)
# Sequence (P51946 whole entry): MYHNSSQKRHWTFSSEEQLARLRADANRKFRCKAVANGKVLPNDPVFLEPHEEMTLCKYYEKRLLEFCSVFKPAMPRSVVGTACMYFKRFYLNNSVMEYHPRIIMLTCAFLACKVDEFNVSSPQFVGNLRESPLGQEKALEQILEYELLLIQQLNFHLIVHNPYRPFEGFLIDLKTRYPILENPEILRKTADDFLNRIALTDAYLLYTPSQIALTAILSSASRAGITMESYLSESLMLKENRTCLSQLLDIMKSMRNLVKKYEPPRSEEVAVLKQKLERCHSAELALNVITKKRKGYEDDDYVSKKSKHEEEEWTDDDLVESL
# Sequence (P50613 whole entry): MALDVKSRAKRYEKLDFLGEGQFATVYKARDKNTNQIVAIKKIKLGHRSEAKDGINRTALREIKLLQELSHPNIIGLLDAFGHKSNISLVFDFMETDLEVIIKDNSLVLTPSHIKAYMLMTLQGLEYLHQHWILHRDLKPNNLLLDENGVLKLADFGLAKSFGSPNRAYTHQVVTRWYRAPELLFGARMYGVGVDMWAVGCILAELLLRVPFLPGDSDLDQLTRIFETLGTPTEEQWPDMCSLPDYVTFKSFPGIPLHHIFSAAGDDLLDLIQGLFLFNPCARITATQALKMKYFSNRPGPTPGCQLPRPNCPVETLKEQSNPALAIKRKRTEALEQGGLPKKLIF
# Sequence (P51948 whole entry, further chain): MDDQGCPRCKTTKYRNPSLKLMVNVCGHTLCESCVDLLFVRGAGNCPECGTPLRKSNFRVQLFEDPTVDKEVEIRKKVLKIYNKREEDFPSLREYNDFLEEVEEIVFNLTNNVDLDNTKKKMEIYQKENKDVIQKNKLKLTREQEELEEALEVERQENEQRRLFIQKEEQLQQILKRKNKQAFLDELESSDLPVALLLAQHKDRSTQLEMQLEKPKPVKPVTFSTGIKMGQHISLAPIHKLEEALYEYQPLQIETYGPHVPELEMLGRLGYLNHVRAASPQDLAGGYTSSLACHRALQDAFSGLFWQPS
# Description: Inhibition of recombinant human full-length His-tagged CDK7/Cyclin H/MNAT1 expressed in baculovirus infection system using Cdk7/9tide as substrate measured after 1 hr by Alexa Fluor 647 ADP Tracer-based Adapta assay
row,Compound,IC50 [µM]
1,C=CC(=O)Nc1ccc(C(=O)N2CCC[C@@H](Nc3nc(C)c(SCc4ncc(C(C)(C)C)o4)s3)C2)cc1,> 10
2,C=CC(=O)Nc1ccc(C(=O)N2C[C@H](Nc3ncc(SCc4ncc(C(C)(C)C)o4)s3)CC[C@@H]2C)cc1,0.609
3,C=CC(=O)Nc1ccc(C(=O)N2CCC[C@@H](Nc3ncc(SCc4ncc(C(C)(C)C)o4)s3)[C@H]2C)cc1,7.79
4,C=CC(=O)Nc1ccc(C(=O)N2CCC[C@@H](Nc3ncc(Cl)c(SCc4ncc(C(C)(C)C)o4)n3)C2)cc1,5.12
5,C=CC(=O)Nc1ccc(C(=O)N2CCC[C@@H](Nc3ncc(SCc4ccncc4)s3)C2)cc1,> 10
6,C=CC(=O)Nc1ccc(C(=O)N2CCC[C@@H](Nc3ncc(SCc4ncc(C(C)(C)C)o4)s3)C2)cc1C(F)(F)F,3.49
7,C=CC(=O)Nc1ccc(C(=O)N2CCC[C@@H](Nc3ncc(SCc4ncc(C(C)(C)C)o4)s3)C2)nc1,3.89
8,C=CC(=O)Nc1ccc(C(=O)N2CCC[C@@H](Nc3ncc([S+]([O-])Cc4ncc(C(C)(C)C)o4)s3)C2)cc1 (stereo not given in full),> 10
9,C=CC(=O)Nc1ccc(C(=O)N2CCC[C@@H](Nc3ncc(SCc4ncc(C(C)(C)C)o4)s3)C2)cc1F,5.54
10,C=CC(=O)Nc1ccc(C(=O)N2CC(Nc3ncc(SCc4ncc(C(C)(C)C)o4)s3)CC(F)(F)C2)cc1 (stereo not given),9.6
